Series [1] concerns PANC-1. The experiment in a line: Antimigratory activity against human PANC1 cells measured after 18 hrs in presence of mitomycin C using crystal violet staining by inverted microscopy-based transwell assay. Format: functional, cell-based. Conditions: PANC-1, 18 h.
Series [2] has as its system PANC-1. The experiment in a line: Antiinvasive activity against human PANC1 cells measured after 18 hrs in presence of mitomycin C using crystal violet staining by inverted microscopy-based matrigel coated transwell assay. Conditions: PANC-1, 18 h. The format is functional, cell-based.
Series [3] deals with T1, Myoferlin (Homo sapiens, UniProt Q9NZM1). The experiment in a line: Binding affinity to recombinant human GST-tagged MYOF C2 domain (3445 to 3912 residues) expressed in Escherichia coli BL21 (DE3) at 0.03125 to 0.5 uM by surface plasmon resonance analysis. (Surface plasmon resonance follows binding to a sensor surface in real time, without labels.)
The test system of series [4] is PANC-1. The experiment in a line: Antimetastatic activity against human PANC1 cells harboring luciferase reporter gene xenografted in Balb/c nude mouse assessed as mouse survival at 25 mg/kg/day, ip (reference value: 25%). The format is functional. The following applies: PANC-1, ip. Background: In xenograft studies the graft and the host belong to different species.

Series [5] concerns PANC-1. The experiment in a line: Antimetastatic activity against human PANC1 cells harboring luciferase reporter gene xenografted in Balb/c nude mouse at 25 mg/kg/day, ip measured every 10 days by bioluminescence imaging analysis. The format is functional, organism-based.
Series [6] is described as follows: Toxicity in Balb/c nude mouse xenografted with PANC1 cells assessed as body weight loss at 25 mg/kg/day, ip. The following applies: in vivo. Format: organism-based.
Series [7] in a line: Toxicity in Balb/c nude mouse xenografted with PANC1 cells assessed as pathological changes in heart at 25 mg/kg/day, ip by H and E staining-based microscopic analysis. Conditions: in vivo. The format is organism-based.
Series [8] is described as follows: Toxicity in Balb/c nude mouse xenografted with PANC1 cells assessed as pathological changes in lung at 25 mg/kg/day, ip by H and E staining-based microscopic analysis. The following applies: in vivo. The format is organism-based.
Series [9] can be described thus: Toxicity in Balb/c nude mouse xenografted with PANC1 cells assessed as pathological changes in liver at 25 mg/kg/day, ip by H and E staining-based microscopic analysis. The format is organism-based. The following applies: in vivo.
A short description of series [10]: Toxicity in Balb/c nude mouse xenografted with PANC1 cells assessed as pathological changes in spleen at 25 mg/kg/day, ip by H and E staining-based microscopic analysis. Format: organism-based. Conditions: in vivo.
A short description of series [11]: Toxicity in Balb/c nude mouse xenografted with PANC1 cells assessed as pathological changes in kidney at 25 mg/kg/day, ip by H and E staining-based microscopic analysis. Conditions: in vivo. Format: organism-based.
The test system of series [12] is PANC-1. The experiment in a line: Antimigratory activity against MYOF-knockout human PANC1 cells measured after 18 hrs in presence of mitomycin C using crystal violet staining by inverted microscopy-based transwell assay. The format is functional, cell-based.
Series [13] has as its target T1, Myoferlin. The experiment in a line: Binding affinity to recombinant human GST-tagged MYOF C2 domain (3445 to 3912 residues) expressed in Escherichia coli BL21 (DE3) at 0.3125 to 10 uM by surface plasmon resonance analysis.

For 34 compounds, IC50, Activity and survival results are on record in ChEMBL document CHEMBL4304741, “Modification and Biological Evaluation of a Series of 1,5-Diaryl-1,2,4-triazole Compounds as Novel Agents against Pancreatic Cancer Metastasis through Targeting Myoferlin” (J Med Chem, 2019).

The source made the active and inactive calls. The calls are words filed in the database; no cut-off is given here.

T1 sequence (Q9NZM1 whole entry, the tested form may be a part): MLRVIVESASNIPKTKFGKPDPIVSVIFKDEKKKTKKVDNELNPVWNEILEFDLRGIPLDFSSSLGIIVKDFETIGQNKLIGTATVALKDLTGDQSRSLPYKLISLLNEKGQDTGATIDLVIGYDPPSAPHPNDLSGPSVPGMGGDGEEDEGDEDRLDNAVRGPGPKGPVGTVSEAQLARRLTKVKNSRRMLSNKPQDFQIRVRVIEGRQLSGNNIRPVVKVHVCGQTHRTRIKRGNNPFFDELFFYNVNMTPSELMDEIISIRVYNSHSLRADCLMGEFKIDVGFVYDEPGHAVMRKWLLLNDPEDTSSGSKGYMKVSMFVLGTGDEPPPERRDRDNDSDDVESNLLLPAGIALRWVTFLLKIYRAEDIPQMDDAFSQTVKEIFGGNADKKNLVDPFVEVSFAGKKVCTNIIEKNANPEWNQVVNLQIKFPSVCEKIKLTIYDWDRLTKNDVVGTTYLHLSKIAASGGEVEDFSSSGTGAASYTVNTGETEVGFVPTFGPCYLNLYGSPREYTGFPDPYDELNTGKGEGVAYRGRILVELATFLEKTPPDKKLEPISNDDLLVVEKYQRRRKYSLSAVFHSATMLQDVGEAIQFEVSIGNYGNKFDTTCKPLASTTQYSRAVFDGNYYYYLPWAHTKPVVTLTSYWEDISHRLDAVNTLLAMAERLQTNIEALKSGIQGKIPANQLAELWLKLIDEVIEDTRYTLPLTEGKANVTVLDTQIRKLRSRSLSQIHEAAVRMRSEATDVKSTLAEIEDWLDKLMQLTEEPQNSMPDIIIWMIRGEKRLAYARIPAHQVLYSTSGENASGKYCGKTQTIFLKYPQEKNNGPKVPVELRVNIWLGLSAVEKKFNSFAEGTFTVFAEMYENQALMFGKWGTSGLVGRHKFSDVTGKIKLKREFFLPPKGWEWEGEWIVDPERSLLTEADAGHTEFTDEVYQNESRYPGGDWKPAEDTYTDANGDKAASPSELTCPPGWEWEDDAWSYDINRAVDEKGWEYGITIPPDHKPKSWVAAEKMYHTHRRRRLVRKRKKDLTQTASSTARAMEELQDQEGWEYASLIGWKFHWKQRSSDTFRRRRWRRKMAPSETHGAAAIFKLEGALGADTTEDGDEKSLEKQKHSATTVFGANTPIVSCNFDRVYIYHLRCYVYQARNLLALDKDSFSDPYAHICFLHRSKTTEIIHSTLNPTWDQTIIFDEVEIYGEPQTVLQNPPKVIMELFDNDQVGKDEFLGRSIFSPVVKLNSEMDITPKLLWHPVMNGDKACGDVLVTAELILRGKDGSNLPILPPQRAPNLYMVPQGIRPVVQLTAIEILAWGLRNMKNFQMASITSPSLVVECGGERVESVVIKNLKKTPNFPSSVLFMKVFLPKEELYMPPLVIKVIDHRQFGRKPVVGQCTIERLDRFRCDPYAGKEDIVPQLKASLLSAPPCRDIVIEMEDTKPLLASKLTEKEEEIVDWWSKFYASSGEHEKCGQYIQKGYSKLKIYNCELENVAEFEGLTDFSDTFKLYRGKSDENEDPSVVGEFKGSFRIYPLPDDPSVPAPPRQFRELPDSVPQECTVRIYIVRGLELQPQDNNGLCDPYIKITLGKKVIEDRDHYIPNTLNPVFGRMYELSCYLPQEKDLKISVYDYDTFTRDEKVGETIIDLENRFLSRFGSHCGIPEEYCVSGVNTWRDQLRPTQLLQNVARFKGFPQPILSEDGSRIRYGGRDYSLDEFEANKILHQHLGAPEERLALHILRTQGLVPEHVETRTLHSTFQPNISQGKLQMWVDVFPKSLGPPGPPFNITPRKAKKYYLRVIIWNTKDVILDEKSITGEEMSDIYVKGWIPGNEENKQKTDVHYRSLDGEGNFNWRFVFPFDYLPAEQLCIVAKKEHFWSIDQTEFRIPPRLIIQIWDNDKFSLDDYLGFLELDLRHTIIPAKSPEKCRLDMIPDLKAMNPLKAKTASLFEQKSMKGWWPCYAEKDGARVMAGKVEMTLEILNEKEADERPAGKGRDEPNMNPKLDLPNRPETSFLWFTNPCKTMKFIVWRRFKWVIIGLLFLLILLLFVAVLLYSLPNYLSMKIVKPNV

For `COc1ccccc1N1C(=O)CSC1c1cccc(C(=O)NCCc2ccc(Br)cc2)c1` (stereo not drawn), the IC50 in the series with PANC-1 [1] turned out to be 390 nM; in the series on PANC-1 [2], 540 nM. As to `COc1ccc(-c2nc(C)nn2-c2cccc(C(=O)NCCc3cccs3)c2)cc1`, the IC50 in the series with PANC-1 [1] is more than 20000 nM. As to `CCc1nc(-c2ccc(OC)cc2)n(-c2cccc(C(=O)NCCCCc3ccccc3)c2)n1`, the half-inhibitory concentration (IC50) turned out to be 140 nM in the series on PANC-1 [1] and 180 nM in the series with PANC-1 [2]. The result on Myoferlin [3] was Active. As to `COc1ccccc1-c1nc(C)nn1-c1cccc(C(=O)NCCc2ccc(Br)cc2)c1`, the IC50 in the series with PANC-1 [1] came to 7920 nM; in the series with PANC-1 [2], 10900 nM. As for `COc1ccc(-c2ncnn2-c2cccc(C(=O)NCCCCc3ccccc3)c2)cc1`, the IC50 in the series with PANC-1 [1] is more than 20000 nM. `COc1ccc(-c2nc(C)nn2-c2cccc(C(=O)NCCCOc3ccccc3)c2)cc1`: the IC50 in the series on PANC-1 [1] worked out at 3120 nM; in the series with PANC-1 [2], 3560 nM. With `COc1ccc(-n2nc(C)nc2-c2cccc(C(=O)NCCCCc3ccccc3)c2)cc1`, the IC50 with PANC-1 [1] is 1680 nM. Consider `CCc1nc(-c2ccc(O)cc2)n(-c2cccc(C(=O)NCCCCc3ccccc3)c2)n1`, for which, in the series on PANC-1 [1], the IC50 was determined as 220 nM. Still for that read-out and setting: to `CCc1nc(-c2ccc(OC)nc2)n(-c2cccc(C(=O)NCCCCc3ccccc3)c2)n1` belongs 810 nM. On the same count and under the same terms, to `COc1ccc(-c2nc(C)nn2-c2cccc(C(=O)NCCCCc3ccc(Br)cc3)c2)cc1` belongs 3020 nM; to `COc1ccc(-c2nc(C)nn2-c2cccc(C(=O)NCCCc3ccc(Cl)cc3)c2)cc1`, more than 20000 nM; to `COc1ccc(-c2nc(C)nn2-c2cccc(C(=O)NCCc3ccncc3)c2)cc1`, more than 20000 nM. The same measure, in the same setting: to `COc1ccc(-c2nc(C)nn2-c2cccc(C(=O)NCCCCCc3ccccc3)c2)cc1` belongs more than 20000 nM; to `CCc1nc(-c2ccc(OC(F)F)cc2)n(-c2cccc(C(=O)NCCCCc3ccccc3)c2)n1`, 830 nM. `CCc1nc(-c2ccc(OC)cn2)n(-c2cccc(C(=O)NCCCCc3ccccc3)c2)n1`: the figures for the IC50 in the series on PANC-1 [1] and in the series on PANC-1 [2] were 120 nM and 150 nM, respectively. Take `CCc1nc(-c2cccc(C(=O)NCCCCc3ccccc3)c2)n(-c2ccc(OC)cc2)n1`: in the series with PANC-1 [1], the IC50 was 420 nM. Regarding `COc1ccc(-c2nc(C)nn2-c2cccc(C(=O)NCCc3ccc(Cl)cc3)c2)cc1`, the figures for the IC50 in the series with PANC-1 [1] and with PANC-1 [2] were 4360 nM and 9870 nM, respectively. Turning to `COc1ccc(-c2nc(C3CC3)nn2-c2cccc(C(=O)NCCCCc3ccccc3)c2)cc1`, in the series on PANC-1 [1], the IC50 came to 7680 nM. `COc1ccc(-c2nc(C)nn2-c2cccc(C(=O)NCCc3ccc(Br)cc3)c2)cc1`: the IC50 with PANC-1 [1] worked out at 3240 nM; with PANC-1 [2] it was 2960 nM. Take `CCc1nc(-c2cccc(C(=O)NCCCCc3ccccc3)n2)n(-c2ccc(OC)cc2)n1`: the IC50 with PANC-1 [1] came out at 9640 nM.

Take `CCc1nc(-c2ccc(OC(F)(F)F)cc2)n(-c2cccc(C(=O)NCCCCc3ccccc3)c2)n1`: the IC50 with PANC-1 [1] turned out to be 640 nM. Take `COc1ccc(-c2nc(C)nn2-c2cccc(C(=O)NCCOCc3ccccc3)c2)cc1`: the IC50 in the series on PANC-1 [1] is 9340 nM.

For the compound `CCc1nc(-c2cnc(OC)cn2)n(-c2cccc(C(=O)NCCCCc3ccccc3)c2)n1`, the IC50 in the series with PANC-1 [1] was 310 nM.

For the compound `COc1ccc(-c2nc(C)nn2-c2cccc(C(=O)NCCCc3ccc(Br)cc3)c2)cc1`, in the series on PANC-1 [1], the IC50 was more than 20000 nM.

As to `CCc1nc(-c2ccc(OC)cc2)n(-c2cncc(C(=O)NCCCCc3ccccc3)c2)n1`, the IC50 in the series on PANC-1 [1] was 1620 nM. Turning to `Nc1ccn([C@@H]2O[C@H](CO)[C@@H](O)C2(F)F)c(=O)n1` [GEMCITABINE], the IC50 in the series on PANC-1 [1] and in the series with PANC-1 [2] was 160 nM throughout. The survival at 25 mg/kg/day with PANC-1 [4] was determined as 60%. Also, the outcome in the series with PANC-1 [5] was Active. Further, the Activity result in series [6], in [7], in series [8], in [9], in [10] and in [11] was “Non-Toxic” in each case. Turning to `CCc1nc(-c2cncc(C(=O)NCCCCc3ccccc3)c2)n(-c2ccc(OC)cc2)n1`, the IC50 with PANC-1 [1] was 1350 nM. Same read-out and setting: to `CCOc1ccc(-c2nc(CC)nn2-c2cccc(C(=O)NCCCCc3ccccc3)c2)cc1` belongs 16800 nM; to `CCCCc1nc(-c2ccc(OC)cc2)n(-c2cccc(C(=O)NCCCCc3ccccc3)c2)n1`, 16800 nM. Same read-out and setting: to `COc1ccc(-c2nc(C)nn2-c2cccc(C(=O)NCCc3ccccn3)c2)cc1` belongs more than 20000 nM. With `COc1ccccc1-c1nc(C)nn1-c1cccc(C(=O)NCCc2ccc(Cl)cc2)c1`, the IC50 with PANC-1 [1] was more than 20000 nM; with PANC-1 [2], 27600 nM. On to `CC(=O)O[C@@]12CO[C@@H]1C[C@H](O)[C@@]1(C)C(=O)[C@H](O)C3=C(C)[C@@H](OC(=O)[C@H](O)[C@@H](NC(=O)OC(C)(C)C)c4ccccc4)C[C@@](O)([C@@H](OC(=O)c4ccccc4)[C@H]21)C3(C)C`, for which the outcome with PANC-1 [12] was Active.

`COc1ccc(-c2nc(C)nn2-c2cccc(C(=O)NCCCCc3ccccc3)c2)cc1`: the IC50 in the series with PANC-1 [1] was determined as 630 nM. In addition, the outcome at Myoferlin [13] was Active. On to `COc1ccc(-c2nc(C(C)C)nn2-c2cccc(C(=O)NCCCCc3ccccc3)c2)cc1`, for which the IC50 in the series on PANC-1 [1] is more than 20000 nM.

In general, IC50 refers to the midpoint of a concentration-inhibition curve.
